{"source": "ChEMBL document CHEMBL1201862", "about": "“PubChem BioAssay data set” (2004)", "key": {"Beta-galactosidase": {"target": "Beta-galactosidase (Escherichia coli, UniProt Q8VNN2)", "sequence (Q8VNN2 whole entry)": "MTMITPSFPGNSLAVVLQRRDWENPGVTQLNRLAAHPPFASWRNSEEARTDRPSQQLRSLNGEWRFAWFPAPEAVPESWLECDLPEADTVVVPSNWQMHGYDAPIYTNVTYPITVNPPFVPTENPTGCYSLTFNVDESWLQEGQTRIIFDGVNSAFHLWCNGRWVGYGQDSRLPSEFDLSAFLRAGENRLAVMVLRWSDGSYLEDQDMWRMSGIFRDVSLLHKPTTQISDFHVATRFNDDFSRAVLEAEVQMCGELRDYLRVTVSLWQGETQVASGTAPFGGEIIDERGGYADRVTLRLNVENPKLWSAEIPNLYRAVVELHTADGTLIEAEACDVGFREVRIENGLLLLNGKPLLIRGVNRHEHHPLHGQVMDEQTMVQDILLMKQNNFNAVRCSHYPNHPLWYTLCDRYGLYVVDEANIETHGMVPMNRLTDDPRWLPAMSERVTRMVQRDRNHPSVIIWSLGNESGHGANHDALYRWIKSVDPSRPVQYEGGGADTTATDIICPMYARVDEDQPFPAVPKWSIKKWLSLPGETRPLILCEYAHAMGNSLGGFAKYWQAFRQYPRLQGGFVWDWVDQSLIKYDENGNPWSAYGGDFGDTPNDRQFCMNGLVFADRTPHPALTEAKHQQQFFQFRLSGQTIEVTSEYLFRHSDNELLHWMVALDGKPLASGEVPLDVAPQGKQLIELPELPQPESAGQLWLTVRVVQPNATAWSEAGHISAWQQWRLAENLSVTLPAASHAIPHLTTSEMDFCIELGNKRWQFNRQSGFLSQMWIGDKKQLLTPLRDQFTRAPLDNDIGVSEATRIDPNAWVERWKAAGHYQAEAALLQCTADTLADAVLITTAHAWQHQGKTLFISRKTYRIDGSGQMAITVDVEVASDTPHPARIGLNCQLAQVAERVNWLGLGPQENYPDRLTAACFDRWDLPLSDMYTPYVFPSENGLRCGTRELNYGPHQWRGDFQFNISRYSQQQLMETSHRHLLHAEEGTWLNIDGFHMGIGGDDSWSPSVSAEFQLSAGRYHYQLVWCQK", "assay": "Dose response counterscreen for EBI2 assay utilizing the enzyme, b-galactosidase.", "assay_type": "functional"}, "[1]": {"target": "26S proteasome non-ATPase regulatory subunit 14 (Homo sapiens, UniProt O00487)", "sequence (O00487 whole entry)": "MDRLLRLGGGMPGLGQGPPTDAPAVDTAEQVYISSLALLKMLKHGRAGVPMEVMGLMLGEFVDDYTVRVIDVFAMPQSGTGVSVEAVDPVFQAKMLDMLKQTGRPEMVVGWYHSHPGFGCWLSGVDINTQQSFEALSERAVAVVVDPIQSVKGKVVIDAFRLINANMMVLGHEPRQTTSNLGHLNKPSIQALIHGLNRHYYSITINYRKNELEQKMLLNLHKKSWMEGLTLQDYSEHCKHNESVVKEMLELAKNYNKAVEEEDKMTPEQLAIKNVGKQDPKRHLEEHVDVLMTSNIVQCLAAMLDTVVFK", "assay": "inhibition of proteasome subunit RPN11 – biochemical, fluorescence polarization, uHTS hits, confirmation (AID 602368)", "assay_type": "functional"}, "[2]": {"target": "72 kDa type IV collagenase (Homo sapiens, UniProt P08253)", "sequence (P08253 whole entry)": "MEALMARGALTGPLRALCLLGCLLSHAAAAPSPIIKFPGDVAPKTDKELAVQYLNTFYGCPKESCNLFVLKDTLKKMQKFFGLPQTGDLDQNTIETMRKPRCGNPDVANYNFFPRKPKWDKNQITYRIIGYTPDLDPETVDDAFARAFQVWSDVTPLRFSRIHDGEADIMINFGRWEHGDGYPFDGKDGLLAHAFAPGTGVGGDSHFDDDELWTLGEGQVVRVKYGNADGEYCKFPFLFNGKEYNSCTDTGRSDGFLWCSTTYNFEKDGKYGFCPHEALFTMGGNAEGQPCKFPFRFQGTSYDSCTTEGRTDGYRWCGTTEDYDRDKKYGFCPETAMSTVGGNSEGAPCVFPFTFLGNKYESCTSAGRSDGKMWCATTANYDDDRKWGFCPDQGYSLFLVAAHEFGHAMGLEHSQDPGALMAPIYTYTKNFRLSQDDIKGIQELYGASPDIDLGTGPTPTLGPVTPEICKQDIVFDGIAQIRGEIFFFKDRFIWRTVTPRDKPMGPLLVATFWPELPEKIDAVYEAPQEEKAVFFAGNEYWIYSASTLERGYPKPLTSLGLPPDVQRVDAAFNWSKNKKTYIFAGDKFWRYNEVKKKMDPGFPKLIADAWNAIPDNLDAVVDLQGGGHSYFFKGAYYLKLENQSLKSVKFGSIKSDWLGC", "assay": "Dose Response validation of uHTS RPN11 inhibitor hits using a MMP-2 Fluorescence assay.", "assay_type": "functional"}, "Prothrombin": {"target": "Prothrombin (Bos taurus, UniProt P00735)", "assay": "thrombin inhibition, dose response, biochemical, fluorescence polarization, uHTS hits (AID 602369)", "assay_type": "functional"}, "[3]": {"assay": "intracellular Trypanosoma cruzi inhibitors in host cells – cell-based, plate reader, cherry-pick samples, set 3, dose response (AID 651818);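 also: compounds incubated with infected cells for about four days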", "assay_type": "functional"}, "[4]": {"target": "T1, High affinity choline transporter 1 (Homo sapiens, UniProt Q9GZV3)", "T1 sequence (Q9GZV3 whole entry)": "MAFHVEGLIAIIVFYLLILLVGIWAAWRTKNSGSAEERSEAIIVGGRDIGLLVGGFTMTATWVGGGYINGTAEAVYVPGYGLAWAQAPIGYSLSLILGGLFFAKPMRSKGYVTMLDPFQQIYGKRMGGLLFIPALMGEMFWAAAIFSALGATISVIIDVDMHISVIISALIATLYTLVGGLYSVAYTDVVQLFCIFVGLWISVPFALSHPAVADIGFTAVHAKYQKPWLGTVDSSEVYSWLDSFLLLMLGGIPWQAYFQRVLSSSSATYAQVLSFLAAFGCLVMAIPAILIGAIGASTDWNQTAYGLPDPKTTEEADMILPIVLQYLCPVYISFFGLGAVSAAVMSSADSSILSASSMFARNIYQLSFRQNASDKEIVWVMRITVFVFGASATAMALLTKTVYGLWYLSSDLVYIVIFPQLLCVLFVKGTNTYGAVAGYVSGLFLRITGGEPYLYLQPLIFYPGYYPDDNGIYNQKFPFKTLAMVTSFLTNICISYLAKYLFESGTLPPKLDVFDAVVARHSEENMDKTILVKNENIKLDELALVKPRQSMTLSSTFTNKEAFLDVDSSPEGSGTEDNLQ", "assay": "CHT inhibitors, dose response, cell-based, 5-point CRC, membrane potential dye (AID 504840)", "assay_type": "functional"}, "Paired box protein Pax-8": {"target": "Paired box protein Pax-8 (Homo sapiens, UniProt Q06710)", "sequence (Q06710 whole entry)": "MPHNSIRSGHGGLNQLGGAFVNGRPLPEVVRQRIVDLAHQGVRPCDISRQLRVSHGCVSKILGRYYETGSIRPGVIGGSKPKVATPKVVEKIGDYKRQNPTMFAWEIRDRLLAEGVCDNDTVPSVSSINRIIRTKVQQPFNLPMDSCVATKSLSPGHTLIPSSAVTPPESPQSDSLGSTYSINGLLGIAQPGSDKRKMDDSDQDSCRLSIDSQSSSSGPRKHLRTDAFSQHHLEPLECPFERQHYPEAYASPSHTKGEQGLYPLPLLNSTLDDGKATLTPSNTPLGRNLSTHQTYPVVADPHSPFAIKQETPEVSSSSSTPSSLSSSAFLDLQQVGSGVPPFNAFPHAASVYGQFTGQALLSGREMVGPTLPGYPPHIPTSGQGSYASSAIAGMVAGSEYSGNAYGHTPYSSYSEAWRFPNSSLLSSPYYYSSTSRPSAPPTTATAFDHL", "assay": "inhibitors of PAX8-driven TPO luciferase reporter, dose response, RMG-I cells, cherry-pick (AID 687027);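 also: luciferase reporter driven by Pax8 target thyroperoxidase promoter measured by SteadyGlo luminescence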", "assay_type": "functional, cell-based"}, "[5]": {"assay": "HeLa cell cytotoxicity, dose response, cytotoxicity control for MgcRacGAP inhibitor project (AID 624300)", "assay_type": "functional"}, "[6]": {"target": "T2, DNA repair protein RAD52 homolog (Homo sapiens, UniProt P43351)", "T2 sequence (P43351 whole entry)": "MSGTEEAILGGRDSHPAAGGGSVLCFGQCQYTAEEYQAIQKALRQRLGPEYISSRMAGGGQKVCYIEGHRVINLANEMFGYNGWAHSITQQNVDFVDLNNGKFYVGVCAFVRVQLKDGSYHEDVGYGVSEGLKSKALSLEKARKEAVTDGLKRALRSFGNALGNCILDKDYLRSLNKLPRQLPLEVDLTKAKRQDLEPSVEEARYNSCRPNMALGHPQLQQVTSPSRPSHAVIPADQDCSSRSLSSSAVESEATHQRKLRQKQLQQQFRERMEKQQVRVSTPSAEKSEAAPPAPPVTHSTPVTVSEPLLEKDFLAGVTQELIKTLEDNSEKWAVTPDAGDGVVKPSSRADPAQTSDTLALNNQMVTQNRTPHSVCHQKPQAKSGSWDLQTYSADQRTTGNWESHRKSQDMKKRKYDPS", "assay_type": "functional, biochemical"}, "Nonstructural protein 1": {"target": "Nonstructural protein 1 (Influenza A virus, UniProt Q194T2)", "sequence (Q194T2 whole entry)": "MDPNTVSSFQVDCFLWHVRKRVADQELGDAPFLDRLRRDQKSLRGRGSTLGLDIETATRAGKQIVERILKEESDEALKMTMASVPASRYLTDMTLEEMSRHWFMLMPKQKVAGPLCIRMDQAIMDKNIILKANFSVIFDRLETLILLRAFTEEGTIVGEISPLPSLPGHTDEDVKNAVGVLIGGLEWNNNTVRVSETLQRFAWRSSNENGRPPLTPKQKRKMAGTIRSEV", "assay_type": "functional, Influenza A virus (A/California/07/2009(H1N1))"}, "[7]": {"target": "T3, Rac GTPase-activating protein 1 (Homo sapiens, UniProt Q9H0H5)", "T3 sequence (Q9H0H5 whole entry)": "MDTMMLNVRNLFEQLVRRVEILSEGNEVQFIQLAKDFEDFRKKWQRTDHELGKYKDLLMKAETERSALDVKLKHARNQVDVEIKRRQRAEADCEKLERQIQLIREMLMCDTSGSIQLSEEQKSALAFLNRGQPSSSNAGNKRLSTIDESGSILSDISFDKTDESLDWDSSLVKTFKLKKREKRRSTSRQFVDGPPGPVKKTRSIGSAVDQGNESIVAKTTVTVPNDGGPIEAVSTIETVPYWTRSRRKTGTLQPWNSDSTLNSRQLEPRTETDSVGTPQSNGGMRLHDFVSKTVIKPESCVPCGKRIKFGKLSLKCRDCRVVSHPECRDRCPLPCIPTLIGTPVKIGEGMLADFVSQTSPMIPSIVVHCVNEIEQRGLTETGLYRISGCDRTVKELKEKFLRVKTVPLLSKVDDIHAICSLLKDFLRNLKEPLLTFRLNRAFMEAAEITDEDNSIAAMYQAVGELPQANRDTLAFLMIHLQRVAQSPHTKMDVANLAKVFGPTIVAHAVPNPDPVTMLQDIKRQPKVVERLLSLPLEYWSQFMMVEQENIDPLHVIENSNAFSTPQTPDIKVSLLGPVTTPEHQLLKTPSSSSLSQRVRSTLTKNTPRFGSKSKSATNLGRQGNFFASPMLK", "assay": "MgcRacGAP GTPase-activating activity inhibitors, confirmation, biochemical, ADP Hunter fluorescence, primary and confirmatory (AID 624330)", "assay_type": "functional"}, "[8]": {"target": "FAD-linked sulfhydryl oxidase ALR (Homo sapiens, UniProt P55789)", "sequence (P55789 whole entry)": "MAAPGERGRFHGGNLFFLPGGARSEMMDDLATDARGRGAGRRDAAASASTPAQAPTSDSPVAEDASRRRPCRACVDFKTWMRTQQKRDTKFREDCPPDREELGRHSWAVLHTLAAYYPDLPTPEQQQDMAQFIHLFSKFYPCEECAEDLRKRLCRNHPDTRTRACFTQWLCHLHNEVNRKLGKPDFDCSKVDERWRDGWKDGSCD", "assay": "inhibitors of human ALR sulfhydryl oxidase, dose response, biochemical, H2O2 detection, luminescence, cherry-pick (AID 493248)"}, "[9]": {"target": "Induced myeloid leukemia cell differentiation protein Mcl-1 (Homo sapiens, UniProt Q07820)", "sequence (Q07820 whole entry)": "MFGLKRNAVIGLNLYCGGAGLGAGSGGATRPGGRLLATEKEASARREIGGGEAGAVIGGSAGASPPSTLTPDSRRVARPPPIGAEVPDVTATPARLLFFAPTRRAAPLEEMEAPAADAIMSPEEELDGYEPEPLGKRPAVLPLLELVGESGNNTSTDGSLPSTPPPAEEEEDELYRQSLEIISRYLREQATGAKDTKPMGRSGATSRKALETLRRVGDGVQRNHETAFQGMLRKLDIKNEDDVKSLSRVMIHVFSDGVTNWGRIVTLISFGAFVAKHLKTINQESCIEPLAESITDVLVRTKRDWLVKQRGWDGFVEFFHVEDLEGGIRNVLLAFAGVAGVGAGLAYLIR", "assay_type": "functional"}, "Large T antigen": {"target": "Large T antigen (Simian virus 40, UniProt P03070)", "sequence (P03070 whole entry)": "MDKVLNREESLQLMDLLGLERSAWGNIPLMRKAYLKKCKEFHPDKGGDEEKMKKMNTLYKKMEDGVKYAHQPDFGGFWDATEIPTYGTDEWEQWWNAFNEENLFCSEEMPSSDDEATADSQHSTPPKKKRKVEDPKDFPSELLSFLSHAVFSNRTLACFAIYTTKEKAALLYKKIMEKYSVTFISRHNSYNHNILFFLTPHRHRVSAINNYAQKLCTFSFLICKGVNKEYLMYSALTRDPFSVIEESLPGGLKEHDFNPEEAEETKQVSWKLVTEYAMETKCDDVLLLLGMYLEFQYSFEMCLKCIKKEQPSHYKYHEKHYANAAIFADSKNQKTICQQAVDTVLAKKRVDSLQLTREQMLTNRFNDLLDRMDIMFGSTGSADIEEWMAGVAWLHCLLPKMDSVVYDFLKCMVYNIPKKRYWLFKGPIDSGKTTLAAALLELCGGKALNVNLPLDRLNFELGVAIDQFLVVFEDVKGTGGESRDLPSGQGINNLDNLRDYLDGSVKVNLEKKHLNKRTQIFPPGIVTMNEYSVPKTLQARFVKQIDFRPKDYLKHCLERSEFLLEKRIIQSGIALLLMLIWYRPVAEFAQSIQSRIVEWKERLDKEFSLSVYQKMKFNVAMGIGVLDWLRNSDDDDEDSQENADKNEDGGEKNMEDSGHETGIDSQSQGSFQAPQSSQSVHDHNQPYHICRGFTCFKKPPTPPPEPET", "assay_type": "functional, Betapolyomavirus macacae"}, "Leucine aminopeptidase": {"target": "T4, Leucine aminopeptidase (Plasmodium falciparum 3D7, UniProt Q8IL11)", "T4 sequence (Q8IL11 whole entry)": "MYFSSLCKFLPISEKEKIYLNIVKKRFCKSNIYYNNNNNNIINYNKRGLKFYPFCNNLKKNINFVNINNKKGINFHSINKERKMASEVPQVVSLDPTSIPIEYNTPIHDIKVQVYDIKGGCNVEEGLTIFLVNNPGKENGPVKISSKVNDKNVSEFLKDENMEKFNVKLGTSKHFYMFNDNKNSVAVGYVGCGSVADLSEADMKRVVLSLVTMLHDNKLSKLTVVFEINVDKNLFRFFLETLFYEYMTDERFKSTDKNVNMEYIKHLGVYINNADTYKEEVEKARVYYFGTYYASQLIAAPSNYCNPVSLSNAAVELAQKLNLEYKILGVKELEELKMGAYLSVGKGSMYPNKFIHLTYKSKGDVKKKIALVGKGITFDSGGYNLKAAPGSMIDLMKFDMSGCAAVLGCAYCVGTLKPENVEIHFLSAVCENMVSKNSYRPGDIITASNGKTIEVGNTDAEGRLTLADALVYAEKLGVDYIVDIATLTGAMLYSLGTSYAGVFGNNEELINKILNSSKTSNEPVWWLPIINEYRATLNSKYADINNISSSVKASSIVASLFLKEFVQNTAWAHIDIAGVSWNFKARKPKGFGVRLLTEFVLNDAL", "assay": "P. falciparum M17LAP inhibitors, primary screen, biochemical, fluorogenic H-Leu-NHMec substrate, 1536-well (AID 1619)", "assay_type": "functional"}}, "note": "Calls of active or inactive are those of the source.", "data": [{"smiles": "CC(=O)N1CCOc2ccc(S(=O)(=O)N3CCC(C(=O)NCc4ccc(Cl)cc4)CC3)cc21", "values": [{"measurement": "IC50", "setting": "Beta-galactosidase", "value": "> 80 µM (inactive)"}]}, {"smiles": "Cc1ccc(Oc2ncc(-c3ccc(Cl)cc3)cn2)cc1", "values": [{"measurement": "IC50", "setting": "Beta-galactosidase", "value": "> 80 µM (inactive)"}]}, {"smiles": "NC(=O)CC(NC(=O)c1ccc(Br)cc1)c1ccc(NC2CCCCCC2)c([N+](=O)[O-])c1", "note": "(configuration not stated)", "values": [{"measurement": "IC50", "setting": "[1]", "value": "31.6 µM (active)"}, {"measurement": "IC50", "setting": "[2]", "value": "> 100 µM (inactive)"}, {"measurement": "IC50", "setting": "Prothrombin", "value": "88.5 µM (active)"}]}, {"smiles": "C[C@@H]1CN([C@H](C)CO)C(=O)c2cccc(NC(=O)CCCCCC(=O)Nc3ccccc3N)c2O[C@@H]1CN(C)Cc1ccc(C(F)(F)F)cc1", "values": [{"measurement": "AC50", "setting": "[3]", "value": "2.34 µM (active)"}]}, {"smiles": "Cc1ccc(S(=O)(=O)CCC(=O)OC(C)C(=O)N2CCc3ccccc32)cc1", "note": "(configuration not stated)", "values": [{"measurement": "IC50", "setting": "[4]", "value": "12.6 µM (active)"}]}, {"smiles": "CCOC(=O)/C=C/C(=O)Nc1cc(S(=O)(=O)Nc2ccc(OC)cc2)ccc1N1CCOCC1", "values": [{"measurement": "AC50", "setting": "Paired box protein Pax-8", "value": "5.42 µM (active)"}, {"measurement": "IC50", "setting": "Beta-galactosidase", "value": "> 80 µM (inactive)"}]}, {"smiles": "Cc1ccc(NCCN(C)C)c2c(=O)c3cc(O)ccc3sc12", "values": [{"measurement": "CC50", "setting": "[5]", "value": "27.7 µM (active)"}, {"measurement": "AC50", "setting": "[6]", "value": "0.32 µM (active)"}, {"measurement": "IC50", "setting": "Nonstructural protein 1", "value": "21.7 µM (active)"}, {"measurement": "IC50", "setting": "[7]", "value": "24 µM (active)"}]}, {"smiles": "COc1cc(C(=O)Nc2ccc(N(C)C)cc2)cc(OC)c1OC", "values": [{"measurement": "AC50", "setting": "[8]", "value": "1.31 µM (active)"}, {"measurement": "IC50", "setting": "[9]", "value": "4.78 µM (not active)"}, {"measurement": "IC50", "setting": "Large T antigen", "value": "6.34 µM (active)"}]}, {"smiles": "Cc1cc(C)c(S(=O)(=O)N2CCN(C(=O)c3ccc(-n4nc(C)c(Cl)c4C)cc3)CC2)c(C)c1", "values": [{"measurement": "IC50", "setting": "Beta-galactosidase", "value": "> 80 µM (inactive)"}]}, {"smiles": "CC(C)(C)NC(=O)NC(=O)CN1CCC(Cc2ccccc2)CC1", "values": [{"measurement": "IC50", "setting": "[4]", "value": "12 µM (active)"}]}, {"smiles": "O=c1[nH][nH]c(=O)c2cc(N3CCCC3)ccc12", "values": [{"measurement": "IC50", "setting": "Leucine aminopeptidase", "value": "70.7 µM (active)"}]}, {"smiles": "CC1CCCC(C)N1CCCNC(=O)CN1C(=O)c2cccnc2Oc2ccc(Cl)cc21", "note": "(configuration not stated)", "values": [{"measurement": "IC50", "setting": "[4]", "value": "13.8 µM (active)"}]}, {"smiles": "Cc1cc(C)c(NC(=O)CCCCCNC2CCCCC2)c(C)c1", "values": [{"measurement": "IC50", "setting": "[4]", "value": "12.6 µM (active)"}]}, {"smiles": "CCSc1nnc(NC(=O)C2CC=CCC2C(=O)O)s1", "note": "(configuration not stated)", "values": [{"measurement": "IC50", "setting": "Leucine aminopeptidase", "value": "19.9 µM (active)"}]}]}
